Source: patent US4044134A, “Fused pyrimidin-4(3H)-ones as antiallergy agents” (Pfizer Inc., priority 1976, dated 1977)
Counter-ions that a name gives are not always drawn. Like-named read-outs stand apart in the source and are kept apart here.

Test system: passive cutaneous anaphylaxis (PCA) reaction
Assay: passive cutaneous anaphylaxis (PCA) test, i.v. or oral administration
Format: in vivo, male Charles River Wistar rats
Details: for inhibition in vivo at 3 mg/kg / inhibition in vivo at 60 mg/kg / inhibition in vivo at 0.03 mg/kg / inhibition in vivo at 0.3 mg/kg / inhibition in vivo at 1 mg/kg / inhibition in vivo at 0.1 mg/kg / inhibition in vivo at 10 mg/kg / inhibition in vivo at 30 mg/kg / inhibition in vivo at 0.003 mg/kg / inhibition in vivo at 100 mg/kg: Rattus norvegicus, read-out: degree (%) of protection, PCA test
Description: In the PCA test, normal animals are injected intradermally (i.d.) with antibodies contained in serum obtained from actively sensitized animals. The animals are then challenged intravenously with antigen mixed with a dye such as Evans' Blue. The increased capillary-permeability caused by the antigen-antibody reaction causes the dye to leak from the site of the antibody injection. The test animals are then asphyxiated and the intensity of the reaction determined by measuring the diameter and intensity of the blue coloration on the inner surface of the animals skin. […] The ability of agents to interfere with PCA reactions is measured in male Charles River Wistar rats, 170-210 g. […] Hyperimmune antisera to hen egg albumin is prepared according to Orange, et al., J. Exptl. […] Forty-eight hours prior to antigen challenge the reaginic antisera is injected intradermally (i.d.) into the shaved skin of a normal rat's back; 5 hours before challenge the hyperimmune antisera is similarly injected; 5 hours later, at a third site, 60 mcg. histamine dihydrochloride is injected i.d. as a check for antihistaminic and unspecific types of blockage; the compounds of the instant invention or saline are then administered i.v. and immediately followed by 2.5 mg. Evan's blue dye and 5 mg. egg albumin in saline. In the case of oral administration Evan's blue dye and egg albumen are given five minutes after administration of the drug. Thirty minutes later the animals are asphyxiated using chloroform and the skin of the back removed and reversed for observation. A score is assigned each injection site equal to the product of the diameter of the site in mm. and a grade of 0.1, 0.5, 1, 2, 3 or 4 proportional to intensity of dye coloration. The scores for a given injection site are summed for each group of 8 animals and compared to the saline treated controls. The difference is expressed as percent blockade due to the compound employed. […] Disodium cromoglycate, a commerial antiallergy agent, is included for comparison. [drawing 3]

Compound | inhibition in vivo at 3 mg/kg (iv, I.V., 3 mg/kg) [%] | inhibition in vivo at 0.03 mg/kg (iv, I.V.) [%] | inhibition in vivo at 1 mg/kg (iv, I.V.) [%] | inhibition in vivo at 10 mg/kg (Oral, 10 mg/kg) [%] | also measured
CCOC(=O)Cc1nc2cc3ccccc3cc2c(=O)[nH]1 [2-carbethoxymethylbenzo[g]quinazolin-4(3H)-one, reference compound] | 49 |  |  |  | 
Cc1nc2cc3ccccc3cc2c(=O)[nH]1 [2-methylbenzo[g]quinazolin-4(3H)-one, reference compound] |  |  |  |  | activity in the PCA test (rat, in vivo): little or no activity
CCc1nc2nc3cc(OC)c(OC)cc3cc2c(=O)[nH]1 [C2 H5/H/H/OCH3/OCH3/H, 2-Ethyl-7,8-Dimethoxypyrimidin[4,5-b]quinolin-4(SH)-One] | 56 |  |  |  | inhibition in vivo at 60 mg/kg (Oral): 0%
COc1cc2cc3c(=O)[nH]c(C)nc3nc2cc1OC [CH3/H/H/OCH3/OCH3/H, 2-Methyl-7,8-Dimethoxypyrimido[4,5-b]Quinolin-4(3H)-One] | 77 | 11 |  |  | inhibition in vivo at 0.3 mg/kg (iv, I.V.): 45%; inhibition in vivo at 1 mg/kg (Oral): 43%; inhibition in vivo at 3 mg/kg (Oral, 3 mg/kg): 67%
COc1cc2cc3c(=O)[nH]c(C(C)=O)nc3nc2cc1OC [COCH3/H/H/OCH3/OCH3/H, 2-Acetyl-7,8-Dimethoxypyrimido[4,5-b]quinoline-4(3H)-One] | 100 |  | 21 | 15 | inhibition in vivo at 0.1 mg/kg (iv, I.V.): 19%
NC(=O)c1nc2nc3ccccc3cc2c(=O)[nH]1 [CONH2/H/H/H/H/H, Pyrimido[4,5-b]Quinolin-4(3H)-One-2-Carboxamide] | 98 |  |  |  | inhibition in vivo at 60 mg/kg (Oral): 23%
COc1cc2cc3c(=O)[nH]c(C(N)=O)nc3nc2cc1OC [CONH2/H/H/OCH3/OCH3/H, 7,8-Dimethoxypyrimido[4,5-b]Quinolin-4(3H)-One-2-Carboxamide] | 87 |  |  |  | inhibition in vivo at 30 mg/kg (Oral): 4%
COc1cc2cc3c(=O)[nH]c(C(=O)NO)nc3nc2cc1OC [CONHOH/H/H/OCH3/OCH3/H, 7,8-Dimethoxypyrimido-[4,5-b]-Quinolin-4(3H)-One-2-Hydroxamic Acid] | 92 |  |  |  | inhibition in vivo at 60 mg/kg (Oral): 3%
CCCCOC(=O)c1nc2nc3ccccc3cc2c(=O)[nH]1 [COO(n-C4 H9)/H/H/H/H/H, n-Butylpyrimido[4,5-b]Quinolin-4(3H)-One-2-carboxylate] |  | 6 | 90 |  | inhibition in vivo at 30 mg/kg (Oral): 50%
CCCCOC(=O)c1nc2nc3cc(OC)c(OC)cc3cc2c(=O)[nH]1 [COO(n-C4 H9)/H/H/OCH3/OCH3/H] | 90 | 100 |  |  | inhibition in vivo at 0.003 mg/kg (iv, I.V., 0.003 mg/kg): 64%; inhibition in vivo at 0.3 mg/kg (iv, I.V.): 94%; inhibition in vivo at 30 mg/kg (Oral): 81%
CCCCOC(=O)c1nc2nc3cc(OC)c(OC(C)=O)cc3cc2c(=O)[nH]1 [COO-(n-C4 H9)/H/H/CH3 COO/OCH3/H] | 100 |  |  | 36 | 
CCCCOC(=O)c1nc2nc3cc(OC)c(OCc4ccccc4)cc3cc2c(=O)[nH]1 [COO-(n-C4 H9)/H/H/OC7 H7/OCH3/H] | 100 | 57 |  | 12 | 
CCCCOC(=O)c1nc2nc3cc(OC)c(O)cc3cc2c(=O)[nH]1 [COO-(n-C4 H9)/H/H/OH/OCH3/H, n-butyl 7-hydroxy-8-methoxypyrimido[4,5-b]quinolin-4(3H)one-2-carboxylate trifluoroacetate] | 100 |  |  | 67 | inhibition in vivo at 0.003 mg/kg (iv, I.V., 0.003 mg/kg): 52%
CCOC(=O)c1nc2nc3ccccc3c(-c3ccccc3)c2c(=O)[nH]1 [COOC2 H5/C6 H5/H/H/H/H, Ethyl 5-Phenylpyrimido[4,5-b]Quinolin-4(3H)-One-2-Carboxylate] | 100 |  | 95 | 0 | inhibition in vivo at 0.1 mg/kg (iv, I.V.): 9%; inhibition in vivo at 0.3 mg/kg (iv, I.V.): 51%; inhibition in vivo at 1 mg/kg (Oral): 0%
CCOC(=O)c1nc2nc3cccc(Cl)c3cc2c(=O)[nH]1 [COOC2 H5/H/Cl/H/H/H, Ethyl 6-Chloropyrimido[4,5-b]Quinolin-4(3H)-One-2-Carboxylate] |  | 11 | 96 |  | inhibition in vivo at 30 mg/kg (Oral): 57%
CCOC(=O)c1nc2nc3cc4c(cc3cc2c(=O)[nH]1)OCO4 [COOC2 H5/H/H/--O--CH2 --O--, Ethyl 7,8-Methylenedioxypyrimido[4,5-b]Quinolin-4(3H)-One-2-Carboxylate] |  |  | 70 |  | inhibition in vivo at 0.1 mg/kg (iv, I.V.): 0%; inhibition in vivo at 30 mg/kg (Oral): 0%
CCOC(=O)c1nc2nc3cc4c(cc3cc2c(=O)[nH]1)OCCO4 [COOC2 H5/H/H/--O--CH2 CH2 --O--/H] | 72 |  | 64 |  | 
CCOC(=O)c1nc2nc3cc(OC)c(OC(C)=O)cc3cc2c(=O)[nH]1 [COOC2 H5/H/H/CH3 COO/OCH3/H, Ethyl 7-Acetoxy-8-Methoxypyrimido[4,5-b]Quinolin-4(3H)One-2-Carboxylate p-Toluenesulfonate] |  |  |  |  | inhibition in vivo at 0.003 mg/kg (iv): 53%; inhibition in vivo at 3 mg/kg (iv): 100%; inhibition in vivo at 10 mg/kg (po): 40%
CCOC(=O)c1nc2nc3ccc(Cl)cc3cc2c(=O)[nH]1 [COOC2 H5/H/H/Cl/H/H, Ethyl 7-Chloropyrimido[4,5-b]quinolin-4(3H)-one-2-carboxylate] |  | 0 | 70 |  | 
CCOC(=O)c1nc2nc3ccc(F)cc3cc2c(=O)[nH]1 [COOC2 H5/H/H/F/H/H, Ethyl 7-fluoropyrimido[4,5-b]quinolin-4(3H)-one-2-carboxylate] | 82 | 0 | 90 |  | inhibition in vivo at 30 mg/kg (Oral): 17%
CCOC(=O)c1nc2nc3cc(F)ccc3cc2c(=O)[nH]1 [COOC2 H5/H/H/H/F/H, Ethyl 8-fluoropyrimido[4,5-b]quinolin-4(3H)-one-2-carboxylate] |  |  |  |  | inhibition in vivo at 0.1 mg/kg (iv, I.V.): 2%
CCOC(=O)c1nc2cc3ccccc3cc2c(=O)[nH]1 [COOC2 H5/H/H/H/H (Formula II), ethyl Benzo[g]Quinazolin-4(3H)-One-2-Carboxylate] |  |  |  |  | inhibition in vivo at 10 mg/kg (iv, I.V., 10 mg/kg): 27%; inhibition in vivo at 100 mg/kg (Oral): 38%
CCOC(=O)c1nc2nc3ccccc3cc2c(=O)[nH]1 [COOC2 H5/H/H/H/H/H, Ethyl Pyrimido[4,5-b]Quinolin-4-(3H)-One-2-Carboxylate] | 99 | 30 | 100 |  | inhibition in vivo at 0.1 mg/kg (iv, I.V.): 45%; inhibition in vivo at 0.3 mg/kg (iv, I.V.): 82%; inhibition in vivo at 10 mg/kg (iv, I.V., 10 mg/kg): 100%; inhibition in vivo at 1 mg/kg (Oral): 12%; inhibition in vivo at 3 mg/kg (Oral, 3 mg/kg): 69%; inhibition in vivo at 30 mg/kg (Oral): 72%; inhibition in vivo at 60 mg/kg (Oral): 100%; inhibition in vivo at 100 mg/kg (Oral): 80%
CCOC(=O)c1nc2nc3cc(OC)ccc3cc2c(=O)[nH]1 [COOC2 H5/H/H/H/OCH3/H] | 90 | 0 |  | 43 | inhibition in vivo at 0.3 mg/kg (iv, I.V.): 20%
CCOC(=O)c1nc2nc3c(OC)c(OC)ccc3cc2c(=O)[nH]1 [COOC2 H5/H/H/H/OCH3/OCH3, Ethyl 8,9-Dimethoxypyrimido[4,5-b]-Quinolin-4(3H)-One-2-Carboxylate] | 100 |  |  | 0 | inhibition in vivo at 0.3 mg/kg (iv, I.V.): 39%; inhibition in vivo at 60 mg/kg (Oral): 26%
CCCCOc1cc2nc3nc(C(=O)OCC)[nH]c(=O)c3cc2cc1OCC [COOC2 H5/H/H/OC2 H5/O-(n-C4 H9)/H] | 90 | 0 | 95 | 67 | inhibition in vivo at 0.1 mg/kg (iv, I.V.): 28%; inhibition in vivo at 0.3 mg/kg (iv, I.V.): 44%; inhibition in vivo at 1 mg/kg (Oral): 3%; inhibition in vivo at 3 mg/kg (Oral, 3 mg/kg): 43%
